# Source: patent US7074761B1, “Peptides and production and use thereof” (Takeda Chemical Ind., Ltd., priority 1996, dated 2006)
# Test system: rat electroencephalogram
# Experiment: Effect on the rat electroencephalogram (sleep-wakefulness)
# Assay type: in vivo
# Experimental: Using male Jcl:Wistar rats (b. wt. 300˜350 g, approx.) under pentobarbital anesthesia (50 mg/kg, i.p.), the head was immobilized in a rat brain stereotaxic apparatus and the skull was drilled for placement of a screw electrode for cortical derivation and a stainless steel bipolar electrode for hippocampal derivation (A:−2.6, L:2.5, H:3.5, Pellegrino and Cushman Brain Atlas). A bipolar stainless steel needle electrode for recording an electromyogram was also inserted into the muscle layer in the dorsocervical region. All the electrodes were connected to a socket on the cranium and fixed with a dental cement. For administration of the test drug solution into the paracele, a 27-G stainless steel guide cannula was inserted in such a manner that the coordinates of its tip would be A:−0.4, L:1.7, H:1.7, and was fixed together with the EEG electrodes using a dental cement. A stilet was inserted into the guide cannula to prevent plugging of the cannula bore by tissue and blood. After postoperative recovery, the animal was submitted to the experiment. The rat was acclimatized to the experimental environment for at least 1 hour and either hCS-17 dissolved in phosphate buffered saline (PBS) or PBS was administered into the paracele via a 30-G infusion cannula. The electroencephalogram was recorded for 4 hours following administration of the test drug. The dose volume was 5 μl and the dose was 0.1 or 1 nmol. Control animals were similarly dosed with PBS.
# The sleep-wakefulness was monitored by visual reading of the polygram and evaluated by frequency analysis and power analysis and classified into the following categories.
# During this time, electromyographic activity is high.
# (2) SWS1 (Shallow-and-Slow Wave Sleep) and SWS2 (Deep-and-Slow Wave Sleep):
# The rat assumes a sleeping posture and delta waves (spindle waves) or high-amplitude, slow-waves appear in the cerebral cortex and high-amplitude, slow-waves, appear in the hippocampal derivation. During this period, electromyographic activity is decreased (SWS1) or absent (SWS2).
# (3) PS (Paradoxical Sleep):
# Alpha waves (low-amplitude, fast waves) appear in the cerebral cortex and theta waves (rhythmic waves) in the hippocampal derivation. During this period, electromyographic activity is absent.
# Using 5˜6 rats per group, hCS-17 and PBS were respectively injected into the same rat to evaluate the relative effect on wakefulness. Analysis for statistical significance was made by paired t-test.
smiles,measurement,setting,value
CSCC[C@H](NC(=O)[C@H](CCCNC(=N)N)NC(=O)[C@@H](N)CC(=O)O)C(=O)N1CCC[C@H]1C(=O)N[C@H]1CSSC[C@@H](C(=O)N[C@@H](CCCCN)C(=O)O)NC(=O)[C@H](CO)NC(=O)[C@H](CO)NC(=O)[C@H](Cc2ccccc2)NC(=O)[C@H]([C@@H](C)O)NC(=O)[C@H](CCCCN)NC(=O)[C@H](Cc2c[nH]c3ccccc23)NC(=O)[C@H](Cc2ccccc2)NC(=O)[C@H](Cc2ccccc2)NC(=O)[C@H](CC(N)=O)NC(=O)[C@H](CCCNC(=N)N)NC1=O [hCS-17],PS (paradoxical sleep) occupancy time vs PBS,0.1 nmol into the paracele,significantly decreased
same,SWS1 (shallow-and-slow wave sleep) occupancy time vs PBS,0.1 nmol into the paracele,tendency toward decrease
same,SWS2 (deep-and-slow wave sleep) occupancy time vs PBS,0.1 nmol into the paracele,toward increase
same,animals showing flattening of the EEG patterns,0.1 nmol into the paracele,2 out of 5
same,wakefulness time (percent occupancy of 4 hour EEG recording) vs PBS,0.1 nmol into the paracele,not different from the PBS control group
same,PS (paradoxical sleep) occupancy time vs PBS,1 nmol into the paracele,decrease
same,SWS1 (shallow-and-slow wave sleep) occupancy time vs PBS,1 nmol into the paracele,significant decrease
same,SWS2 (deep-and-slow wave sleep) occupancy time vs PBS,1 nmol into the paracele,increase
same,animals showing flattening of the EEG patterns,1 nmol into the paracele,4 out of 6
same,duration of flattening of cortical and hippocampal EEG patterns,immediately after administration into the paracele,3˜5 minutes
